From patent publication US12151999B2, “Small molecule compounds having naphthylamine structure and application thereof” (Hangzhou PhecdaMed Co., Ltd., priority 2021, dated 2024)

Experiments:
HEK293Tmtkeima cells = assay: Functional test of mitophagy inducer (mtKeima imaging, with or without CCCP-induced mitochondrial damage); type: cell-based, Human; conditions: for Ability to selectively induce autophagy in damaged mitochondria (FIG. 2): 5 uM or 10 uM CCCP versus no CCCP treatment; for The ability of selection to induce autophagy in damaged mitochondria: HEK293Tmtkeima cells, 5 uM or 10 uM CCCP to induce mitochondrial damage, number of cells in which damaged mitophagy occurs/number of all cells
Protocol: Group 1: Human embryonic kidney transformed cells HEK293Tmtkeima cells were treated with 0 μM, 1.25 μM, 2.5 μM, 5 μM and 10 μM CCCP respectively, and seeded in a 96-well black ELISA PLATE at 1.5*10^5 cells/ml, 100 μL per well. Compound I-2 was added after 25 hours, and 3 replicates were set. At 37° C., under 5% CO2 incubation conditions, photographs were taken every few hours with biotek cytation 5 for a total of 20 hours, with the bright field as the focusing channel, and 9 images were taken per hole, and the images were processed using the instrument software.
Group 2: Human embryonic kidney transformed cells HEK293Tmtkeima cells were seeded in a 96-well black ELISA PLATE at […], 100 μL per well; compounds I-1˜I-44 and UMI-77 were added after 25 hours, set up 3 replicates; under 37° C., 5% CO2 culture conditions, use biotek every few hours Cytation 5 was used to take photos, a total of 20 hours of shooting. In another group of cells under the same conditions, human embryonic kidney-transformed cells HEK293Tmtkeima cells were seeded in a 96-well black enzyme plate at 1.5*10^5 cells/ml, 100 μl per well; after 24 hours, 5 uM or 10 uM CCCP (Carbonyl cyanide) was first added 3-chlorophenylhydrazone) to induce mitochondrial damage, then add I-1˜I-44, UMI-77 1 hour later, set up 3 repetitions; under 37° C., 5% CO2 culture conditions, pictures were taken every few hours with biotek cytation 5, photographs were taken for 20 hours. Another group of human embryonic kidney transformed cells HEK293Tmtkeima cells was seeded at 1.5*10^5 cells/ml in 96-well black ELISA PLATE at 100 μl per well under the same conditions, 24 hours later 5 uM or 10 uM CCCP (Carbonyl cyanide 3-chlorophenylhydrazone) was first added to induce mitochondrial damage, after 1 hour then add I-1 to I-44, UMI-77 and set up 3 replicates. At 37° C., under 5% CO2 incubation conditions, pictures were taken every few hours with biotek cytation 5, photographs were taken for 20 hours, with the bright field as the focusing channel for both groups, and 9 images were taken per hole, and the images were processed using the instrument software.

[1] = In vitro liver microsome stability test; type: in vitro ADME; conditions: in vitro mouse or human liver microsomes
Protocol: Ketanserin was selected as the reference compound. The specific method is as follows:
Prepare 0.1MK3PO4 (pH 7.4) buffer and 3×NADPH stock solution (6 mM, 5 mg/mL), and preheat in a 37° C. water bath; configure the test compound and control compound spiking solution: 5 μL compound stock solution ([…]) was added to 95 μL acetonitrile; Configuration of 1.5 μM spiking solution in microsomes (0.75 mg/mL): 1.5 μL of spiking solution and 18.75 μL of liver microparticles solution (20 mg/mL) were added to 479.75 μL of K3PO4 buffer; add 30 μL spiking solution in microsomes to the multi-well plate, and incubated at 37° C. for 5 minutes; add 15 μL NADPH stock solution to each well to start the reaction, and timing; the reaction was terminated by adding 150 μL of acetonitrile solution containing IS at 0 min, 5 min, 15 min, 30 min and 45 min, respectively; shake for 10 min and then centrifuge at 6000 rpm for 15 min; take 80 μL of the supernatant from each well for LC/MS detection and calculate T1/2.
Note: The mouse and human liver microsomes used in the experiments were purchased from Xenotech.

[2] = In vitro plasma stability test; type: in vitro ADME; conditions: 37° C.
Protocol: Procaine was selected as the reference compound. The specific method is as follows:
Incubated in a water bath at 37° C. for 0, 5, 15 and 30 minutes and 1, 2, 4, 6, 10, 24 and 48 hours. Take 200 μL and add 3 times the volume of chromatography grade acetonitrile to precipitate the protein. Vortex shaking for 5 minutes, centrifuge, take 200 μL of the supernatant, HPLC injection and analysis. The liquid phase conditions are the same as before.

[3] = Mouse pharmacokinetics (PK) test; type: in vivo, ICR mice; conditions: for AUC(0-inf) / bioavailability / half-life / Cmax / clearance / Vd: ICR, plasma; for bioavailability: read-out: Bioavailability F; for half-life: read-out: Half-life t 1/2 (converted); for Cmax: read-out: Peak blood concentration C max; for clearance: read-out: Eliminate Cl; for Vd: read-out: Steady state apparent volume of distribution Vss
Protocol: (§1) Take experimental mice and apply an appropriate amount of the test compound to them according to the dosage and administration route shown in the figure. Three experimental mice were selected for three parallel experiments for each compound and each administration method. Numbers 101, 102 and 103 were in the same group, 201, 202 and 203 were in one group, and 301, 302 and 303 were in one group.
(§2) At the corresponding time point, take 10 μL of rat plasma sample into a centrifuge tube, add 100 μL of methanol:acetonitrile (1:1, v/v), perform […] for 1 min, centrifuged (14000 rpm) for 5 min, and take 50 μL of the supernatant, mixed with water in equal volumes, mixed uniformly by […] and then analyzed.
(§3) Note: The mice used in the PK experiment are ICR mice of SPF, purchased from Sino-British SIPPR Lab Animal Ltd, Shanghai, China. The rats used in the PK experiments were SD rats of SPF, purchased from Sino-British SIPPR Lab Animal Ltd, Shanghai, China.

[4] = Rat pharmacokinetics (PK) test; type: in vivo, SD rats; conditions: for bioavailability: read-out: Bioavailability F; for half-life: read-out: Half-life t 1/2 (converted); for Cmax: read-out: Peak blood concentration C max
Protocol: as §1, §2, §3

[5] = IP intraperitoneal injection, 3 mg/kg
[6] = IV intravenous injection, 1 mg/kg
[7] = SD, plasma, IP intraperitoneal injection (3 mg/kg)
[8] = SD, plasma, IV intravenous injection (1 mg/kg)
[9] = SD, plasma, PO oral gavage (10 mg/kg)

SMILES | Ability to selectively induce autophagy in damaged mitochondria (FIG. 2) (HEK293Tmtkeima cells) | The ability of selection to induce autophagy in damaged mitochondria (HEK293Tmtkeima cells) | Liver microsomal stability (elimination half-life T 1/2, FIG. 3) [1] | Plasma stability (half-life, FIG. 4) [2] | PK properties in the mouse PK experiment (in words) [3] | AUC(0-inf) [3, 6] [µg·h/mL] | clearance [3, 6] [L/h/kg] | half-life [3, 6] [h] | Cmax [3, 6] [µg/mL] | Vd [3, 6] [L/kg] | AUC(0-inf) ([3]; PO oral gavage, 10 mg/kg) [µg·h/mL] | bioavailability ([3]; PO oral gavage, 10 mg/kg) [%] | half-life ([3]; PO oral gavage, 10 mg/kg) [h] | Cmax ([3]; PO oral gavage, 10 mg/kg) [µg/mL] | other results
O=C(O)C[S+]([O-])c1cc(NS(=O)(=O)c2ccc(Br)cc2)c2ccccc2c1O (centres unmarked) [Compound I-1] | more likely to induce autophagy in damaged mitochondria | +++ (strong ability to selectively induce autophagy in damaged mitochondria (number of cells in which damaged mitophagy occurs/number of all cells >0.30)) | superior liver microsomal stability | superior plasma stability | good PK properties | 0.714 | 1.49 | 1.25 | 0.832 | 2.3 | 3.8 | 60.4 | 1.96 | 1.35 | AUC(0-inf) [3, 5]: 4.42 µg·h/mL; bioavailability [3, 5]: 247%; half-life [3, 5]: 0.79 h; Cmax [3, 5]: 3.74 µg/mL; PK properties in the rat PK experiment (in words) [4]: good PK properties; AUC(0-inf) [4, 7]: 18.3 µg·h/mL; bioavailability [4, 7]: 165%; half-life [4, 7]: 3.34 h; Cmax [4, 7]: 5.44 µg/mL; AUC(0-inf) [4, 8]: 3.72 µg·h/mL; clearance ([4]; SD, plasma, IV intravenous injection (1 mg/kg), read-out: Eliminate Cl): 0.295 L/h/kg; half-life [4, 8]: 1.93 h; Cmax [4, 8]: 1.9 µg/mL; Vd ([4]; SD, plasma, IV intravenous injection (1 mg/kg), read-out: Steady state apparent volume of distribution V ss): 0.63 L/kg; AUC(0-inf) [4, 9]: 6.07 µg·h/mL; bioavailability [4, 9]: 16.3%; half-life [4, 9]: 0.96 h; Cmax [4, 9]: 1.55 µg/mL
O=C(O)CSc1cc(NS(=O)(=O)c2ccc(Br)cc2)c2ccccc2c1O [UMI-77, reference compound] | unable to selectively induce autophagy in damaged mitochondria |  | unstable in the liver microsomal environment and will be rapidly eliminated | unstable in the plasma environment and will be rapidly eliminated | rapidly cleared | 0.14 | 7.86 |  | 0.314 | 18.4 | 0.162 | 8.64 |  | 0.102 | 
CN(c1cc([S+]([O-])CC(=O)O)c(O)c2ccccc12)S(=O)(=O)c1ccc(Br)cc1 (centres unmarked) [Compound I-2] | more likely to induce autophagy in damaged mitochondria | ++ (moderate ability to selectively induce autophagy in damaged mitochondria (number of cells in which damaged mitophagy occurs/number of all cells in the range of 0.2 to 0.3)) | superior liver microsomal stability | superior plasma stability | good PK properties | 0.429 | 2.36 | 0.98 | 0.947 | 1.39 | 1.05 | 24.1 | 1.37 | 0.495 | Induction of mitophagy in cells with undamaged mitochondria (FIG. 1) (HEK293Tmtkeima cells; cells treated with 0 μM CCCP): unable to induce autophagy in non-damaged mitochondria; Induction of mitophagy in cells with mitochondrial damage (FIG. 1) (HEK293Tmtkeima cells; cells with CCCP (10 μM) versus without CCCP): selectively induces autophagy in damaged mitochondria
O=C(O)C[S+]([O-])c1cc(NS(=O)(=O)c2cc3ccccc3s2)c2ccccc2c1O (centres unmarked) [Compound I-19-1] |  | ++ (moderate ability to selectively induce autophagy in damaged mitochondria (number of cells in which damaged mitophagy occurs/number of all cells in the range of 0.2 to 0.3)) |  |  |  |  |  |  |  |  |  |  |  |  | 
O=S(=O)(Nc1cc([S+]([O-])Cc2nnc[nH]2)c(O)c2ccccc12)c1ccc(Br)cc1 (centres unmarked) [Compound I-8] |  | +++ (strong ability to selectively induce autophagy in damaged mitochondria (number of cells in which damaged mitophagy occurs/number of all cells >0.30)) |  |  |  |  |  |  |  |  |  |  |  |  | 
O=C(O)C[S+]([O-])c1cc(NS(=O)(=O)c2ccc(C(F)(F)F)cc2)c2ccccc2c1O (centres unmarked) [Compound I-14-1] |  | ++ (moderate ability to selectively induce autophagy in damaged mitochondria (number of cells in which damaged mitophagy occurs/number of all cells in the range of 0.2 to 0.3)) |  |  |  |  |  |  |  |  |  |  |  |  | 
